Laboratory results taken from EPA's ToxRefDB 2.

Experiments:
rat [1] = settings: Subchronic oral toxicity in rodents, wistar, Feed, dose end: 90 day, group: systemic
rat [2] = settings: Carcinogenicity, wistar, Oral, Feed, dose end: 104 week, group: systemic
dog [3] = settings: Chronic toxicity, beagle, Oral, Feed, dose end: 12 month, group: systemic
dog [4] = settings: Subchronic oral toxicity in nonrodent, beagle, Feed, dose end: 90 day, group: systemic
rat [5] = settings: Chronic toxicity, wistar, Oral, Feed, dose end: 104 week, group: systemic
rabbit [6] = settings: Prenatal developmental toxicity study, himalayan, Oral, Gavage/Intubation, dose end: 19 GD
mouse [7] = settings: Carcinogenicity, b6c3f1, Oral, [Not Specified], dose end: 78 week, group: systemic
mouse [8] = settings: Carcinogenicity; other; Oral; Feed; dose end: 18 month; group: systemic; systemic / in life observation / body weight / body weight
rabbit [9] = settings: Prenatal developmental toxicity study, new zealand white, Oral, Capsule, dose end: 18 GD
mouse [10] = settings: Carcinogenicity; other; Oral; Feed; dose end: 18 month; group: systemic; systemic / in life observation / body weight / body weight; remark: listed apart in the source
rat [11] = settings: Combined chronic toxicity/carcinogenicity, other, Oral, Feed, dose end: 24 month, group: systemic
rabbit [12] = settings: Prenatal developmental toxicity study, new zealand white, Oral, Capsule, dose end: 18 GD; remark: listed apart in the source
rat [13] = settings: Multigenerational reproductive toxicity study, sprague dawley, Oral, Feed, dose end: 2 generation
rat [14] = settings: Other (NonGuideline or Guideline Not Listed), sprague dawley, Oral, Gavage/Intubation, dose end: 20 PND, group: cannot be grouped
rat [15] = settings: Peri- and post-natal toxicity study (Segment III), sprague dawley, Oral, Gavage/Intubation, dose end: 54 PND
dog [16] = settings: Chronic toxicity, beagle, Oral, Feed, dose end: 12 month
rabbit [17] = settings: Prenatal developmental toxicity study; chinchilla; Oral; Gavage/Intubation; dose end: 18 GD; group: maternal; reproductive / reproductive performance / postimplantation loss / postimplantation loss + systemic / in life observation / body weight / …
dog [18] = settings: Chronic toxicity; beagle; Oral; Feed; dose end: 26 week; group: systemic; systemic / in life observation / body weight / body weight + systemic / clinical chemistry / [other] / [other] + systemic / clinical …
rat [19] = settings: Combined chronic toxicity/carcinogenicity, other, Oral, Feed, dose end: 106 week
mouse [20] = settings: Carcinogenicity, b6c3f1, Oral, Feed, dose end: 24 month, group: systemic
[21] = systemic / clinical chemistry / albumin / albumin + systemic / clinical chemistry / protein / protein
[22] = systemic / organ weight / liver / absolute + systemic / organ weight / liver / relative to body weight + systemic / pathology microscopic / …
[23] = systemic / pathology gross / lymph node / enlarged + systemic / pathology gross / spleen / enlarged + systemic / pathology microscopic / …
[24] = systemic / organ weight / liver / relative to body weight + systemic / pathology microscopic / liver / hemosiderosis + systemic / clinical …
[25] = systemic / organ weight / liver / relative to body weight + systemic / pathology microscopic / spleen / hemosiderosis + systemic / …
[26] = systemic / clinical chemistry / cholesterol / cholesterol
[27] = systemic / clinical chemistry / cholesterol / cholesterol + systemic / in life observation / body weight / body weight + systemic / in life …
[28] = group: developmental, developmental / developmental malformation / bone / full supernumerary + developmental / developmental malformation / bone / fused + …
[29] = group: maternal, systemic / in life observation / body weight / body weight gain + systemic / in life observation / food consumption / food efficiency + …
[30] = systemic / organ weight / kidney / absolute
[31] = group: developmental, systemic / in life observation / body weight / fetal weight
[32] = group: maternal, systemic / in life observation / clinical signs / anorexia + systemic / in life observation / clinical signs / no feces + systemic / in life…
[33] = systemic / organ weight / kidney / absolute + systemic / organ weight / kidney / relative to body weight
[34] = group: maternal, systemic / in life observation / clinical signs / anorexia + systemic / pathology gross / stomach / fluid contents + systemic / pathology …
[35] = group: offspring, systemic / in life observation / body weight / offspring (pup) weight + systemic / in life observation / body weight / offspring (pup) …
[36] = group: parental, systemic / in life observation / body weight / body weight + systemic / in life observation / body weight / body weight gain + systemic / in…
[37] = group: parental, systemic / in life observation / body weight / body weight gain
[38] = developmental / developmental landmark / preputial separation / preputial separation
[39] = developmental / developmental malformation / general / [other] + developmental / developmental malformation / penis / [other] + …
[40] = group: developmental, developmental / developmental landmark / preputial separation / preputial separation
[41] = group: parental, systemic / organ weight / [other] / absolute + systemic / organ weight / adrenal gland / absolute + systemic / organ weight / epididymis / …
[42] = group: cholinesterase, cholinesterase / cholinesterase / cholinesterase / erythrocyte cholinesterase (che) + cholinesterase / cholinesterase / cholinesterase / …
[43] = group: systemic, systemic / clinical chemistry / cholesterol / cholesterol
[44] = group: systemic, systemic / clinical chemistry / cholesterol / cholesterol + systemic / in life observation / clinical signs / vomitting
[45] = group: cholinesterase, cholinesterase / cholinesterase / cholinesterase / plasma cholinesterase (che) + cholinesterase / cholinesterase / cholinesterase / …
[46] = group: systemic, systemic / in life observation / body weight / body weight + systemic / in life observation / food consumption / food consumption
[47] = group: systemic, systemic / in life observation / body weight / body weight + systemic / in life observation / food consumption / food consumption + systemic…
[48] = systemic / clinical chemistry / alanine aminotransferase (alt/sgpt) / alanine aminotransferase (alt/sgpt) + systemic / organ weight / liver…
[49] = systemic / clinical chemistry / protein / protein

For `CN1CSC(=S)N(C)C1` [Dazomet], the LEL (rat [1]; [21]) was 1.7 mg/kg/day, the NEL (rat [1]; [21]) was < 1.7 mg/kg/day and the LOAEL (rat [1]; [22]) was 4.5 mg/kg/day. The NOAEL (rat [1]; [22]) was 1.5 mg/kg/day, the LEL (rat [2]; systemic / pathology gross / lymph node / enlarged + systemic / pathology gross / spleen / enlarged) was 0.9 mg/kg/day and the LOAEL (rat [2]; [23]) was > 3.71 mg/kg/day. For the same compound, the NEL (rat [2]; [23]) was 0.2 mg/kg/day, the NOAEL (rat [2]; [23]) was ≥ 3.71 mg/kg/day and the LOAEL (dog [3]; systemic / organ weight / liver / relative to body weight + systemic / pathology microscopic / liver / hemosiderosis) was 1.12 mg/kg/day. For the same compound, the LEL (dog [3]; [24]) was 1.12 mg/kg/day, the NEL (dog [3]; [24]) was 0.35 mg/kg/day and the NOAEL (dog [3]; [24]) was 0.35 mg/kg/day. The LOAEL (dog [4]; systemic / organ weight / liver / relative to body weight + systemic / pathology microscopic / spleen / hemosiderosis) was 7.25 mg/kg/day, the LEL (dog [4]; [25]) was 7.25 mg/kg/day and the NEL (dog [4]; [25]) was 3.5 mg/kg/day. The NOAEL (dog [4]; [25]) was 3.5 mg/kg/day, the LEL (rat [5]; [26]) was 3.81 mg/kg/day and the LOAEL (rat [5]; [26]) was 3.81 mg/kg/day. For the same compound, the NEL (rat [5]; [27]) was 0.94 mg/kg/day, the NOAEL (rat [5]; [27]) was 0.94 mg/kg/day and the LEL (rabbit [6]; [28]) was 45 mg/kg/day. It also gave an LOAEL (rabbit [6]; [28]) of 45 mg/kg/day, an NEL (rabbit [6]; [28]) of 15 mg/kg/day and an NOAEL (rabbit [6]; [28]) of 15 mg/kg/day. The LOAEL (rabbit [6]; group: maternal, systemic / in life observation / body weight / body weight gain + systemic / in life observation / food consumption / food efficiency) was 45 mg/kg/day, the LEL (rabbit [6]; [29]) was 45 mg/kg/day and the NEL (rabbit [6]; [29]) was 15 mg/kg/day. The NOAEL (rabbit [6]; [29]) was 15 mg/kg/day, the LEL (mouse [7]; [30]) was 3.9 mg/kg/day and the NEL (mouse [7]; [30]) was < 3.9 mg/kg/day. It also gave an LOAEL (mouse [7]; systemic / pathology microscopic / liver / adenoma) of 15.6 mg/kg/day and an NOAEL (mouse [7]; systemic / pathology microscopic / liver / adenoma + systemic / in life observation / body weight / body weight + systemic / in life …) of 3.9 mg/kg/day.

`CC(C)([CH2][Sn]([CH2]C(C)(C)c1ccccc1)([CH2]C(C)(C)c1ccccc1)[O][Sn]([CH2]C(C)(C)c1ccccc1)([CH2]C(C)(C)c1ccccc1)[CH2]C(C)(C)c1ccccc1)c1ccccc1` [Fenbutatin oxide] showed an LEL (mouse [8]) of 45 mg/kg/day, an LOAEL (mouse [8]) of 45 mg/kg/day and an NEL (mouse [8]) of 15 mg/kg/day. The NOAEL (mouse [8]) was 15 mg/kg/day, the LEL (rabbit [9]; [31]) was 10 mg/kg/day and the LOAEL (rabbit [9]; [31]) was 10 mg/kg/day. The NEL (rabbit [9]; [31]) was 5 mg/kg/day, the NOAEL (rabbit [9]; [31]) was 5 mg/kg/day and the LEL (rabbit [9]; [32]) was 5 mg/kg/day. For the same compound, the LOAEL (rabbit [9]; [32]) was 5 mg/kg/day, the NEL (rabbit [9]; [32]) was 1 mg/kg/day and the NOAEL (rabbit [9]; [32]) was 1 mg/kg/day. It also gave an LEL (mouse [10]) of 45 mg/kg/day, an LOAEL (mouse [10]) of 45 mg/kg/day and an NEL (mouse [10]) of 15 mg/kg/day. The NOAEL (mouse [10]) was 15 mg/kg/day, the LOAEL (rat [11]; systemic / clinical chemistry / alkaline phosphatase (alp/alk) / alkaline phosphatase (alp/alk)) was 15 mg/kg/day and the NOAEL (rat [11]; systemic / clinical chemistry / alkaline phosphatase (alp/alk) / alkaline phosphatase (alp/alk) + systemic / clinical chemistry / urea …) was 5 mg/kg/day. The LEL (rat [11]; [33]) was 2.5 mg/kg/day, the NEL (rat [11]; [33]) was < 2.5 mg/kg/day and the LEL (rabbit [12]; [31]) was 10 mg/kg/day. The LOAEL (rabbit [12]; [31]) was 10 mg/kg/day, the NEL (rabbit [12]; [31]) was 5 mg/kg/day and the NOAEL (rabbit [12]; [31]) was 5 mg/kg/day. It also gave an LEL (rabbit [12]; [34]) of 5 mg/kg/day, an LOAEL (rabbit [12]; [34]) of 5 mg/kg/day and an NEL (rabbit [12]; [34]) of 1 mg/kg/day. It also gave an NOAEL (rabbit [12]; [34]) of 1 mg/kg/day, an LEL (rat [13]; group: offspring, systemic / in life observation / body weight / offspring (pup) weight) of 5.92 mg/kg/day and an LOAEL (rat [13]; [35]) of 17.4 mg/kg/day. For the same compound, the NEL (rat [13]; [35]) was 3.18 mg/kg/day, the NOAEL (rat [13]; [35]) was 5.2 mg/kg/day and the LOAEL (rat [13]; [36]) was 30 mg/kg/day. For the same compound, the NOAEL (rat [13]; [36]) was 14.8 mg/kg/day, the LEL (rat [13]; [37]) was 2.39 mg/kg/day and the NEL (rat [13]; [37]) was < 2.39 mg/kg/day.

With `CC(C)C(=O)Nc1ccc([N+](=O)[O-])c(C(F)(F)F)c1` [Flutamide] the LEL (rat [14]; [38]) was 0.4 mg/kg/day, the NEL (rat [14]; [38]) was < 0.4 mg/kg/day and the LOAEL (rat [14]; [39]) was > 10 mg/kg/day. The NOAEL (rat [14]; [39]) was ≥ 10 mg/kg/day, the LEL (rat [15]; [40]) was 25 mg/kg/day and the LOAEL (rat [15]; [40]) was > 50 mg/kg/day. For the same compound, the NEL (rat [15]; [40]) was < 25 mg/kg/day, the NOAEL (rat [15]; [40]) was ≥ 50 mg/kg/day and the LEL (rat [15]; [41]) was 25 mg/kg/day. For the same compound, the LOAEL (rat [15]; [41]) was > 50 mg/kg/day, the NEL (rat [15]; [41]) was < 25 mg/kg/day and the NOAEL (rat [15]; [41]) was ≥ 50 mg/kg/day.

With `CNC(=O)Oc1ccccc1OC(C)C` [Propoxur] the LEL (dog [16]; [42]) was 781 mg/kg/day, the LOAEL (dog [16]; [42]) was > 781 mg/kg/day and the NEL (dog [16]; [42]) was 186 mg/kg/day. The NOAEL (dog [16]; [42]) was ≥ 781 mg/kg/day, the LOAEL (dog [16]; [43]) was 62.4 mg/kg/day and the NOAEL (dog [16]; [43]) was < 62.4 mg/kg/day. The LEL (dog [16]; [44]) was 62.4 mg/kg/day, the NEL (dog [16]; [44]) was < 62.4 mg/kg/day and the LEL (rabbit [17]) was 30 mg/kg/day. It also gave an LOAEL (rabbit [17]) of 30 mg/kg/day, an NEL (rabbit [17]) of 10 mg/kg/day and an NOAEL (rabbit [17]) of 10 mg/kg/day. For the same compound, the LEL (dog [18]) was 1.75 mg/kg/day, the LOAEL (dog [18]) was > 1.75 mg/kg/day and the NEL (dog [18]) was < 1.75 mg/kg/day. For the same compound, the NOAEL (dog [18]) was ≥ 1.75 mg/kg/day, the NEL (rat [19]; group: cholinesterase, cholinesterase / cholinesterase / cholinesterase / plasma cholinesterase (che)) was 50 mg/kg/day and the LEL (rat [19]; [45]) was 250 mg/kg/day. For the same compound, the LOAEL (rat [19]; [45]) was > 250 mg/kg/day, the NOAEL (rat [19]; [45]) was ≥ 250 mg/kg/day and the LEL (rat [19]; [46]) was 10 mg/kg/day. For the same compound, the NEL (rat [19]; [46]) was < 10 mg/kg/day, the LOAEL (rat [19]; [47]) was 250 mg/kg/day and the NOAEL (rat [19]; [47]) was 50 mg/kg/day. It also gave an LOAEL (mouse [20]; [48]) of 472 mg/kg/day, an NOAEL (mouse [20]; [48]) of 114 mg/kg/day and an LEL (mouse [20]; [49]) of 150 mg/kg/day. The NEL (mouse [20]; [49]) was < 150 mg/kg/day.
